Activity calls are given as the source filed them.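 The calls were made as follows: active = compound cutting LYPLA1 and LYPLA2 activity by half or more in mouse liver, kidney or brain after 5 mg/kg; inactive = the rest.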
Biological target: Acyl-protein thioesterase 1 (Mus musculus) (UniProt P97823)
Assay: in vivo LYPLA1 target engagement in mouse tissues, late-stage follow-up, in vivo study for LYPLA1/LYPLA2 inhibitor project, mouse liver, brain, kidney proteomes, fluorescence gel (AID 743134)
Conditions: C57BL6 mice i.p., tissue gel-based ABPP FP-Rh, 4 h

Sequence of Acyl-protein thioesterase 1 (Mus musculus) (P97823 whole entry, looked up): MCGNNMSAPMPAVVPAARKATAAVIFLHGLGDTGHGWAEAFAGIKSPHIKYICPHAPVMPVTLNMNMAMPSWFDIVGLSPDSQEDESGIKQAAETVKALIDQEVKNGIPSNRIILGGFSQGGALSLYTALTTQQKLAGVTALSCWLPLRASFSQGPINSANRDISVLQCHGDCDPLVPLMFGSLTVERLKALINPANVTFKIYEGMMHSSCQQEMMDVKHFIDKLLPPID

O=C(ON1C(=O)C2CN(C(=O)N3CCOCC3)CCN2C1=O)N1CCC(CCc2ccc(Cl)cc2)CC1 (stereo not drawn)
outcome (Brain soluble proteome): inactive
outcome (Kidney soluble proteome): active
outcome (Liver soluble proteome): active

Source: PubChem BioAssay AID743134 (The Scripps Research Institute Molecular Screening Center, 2013)
